Literature values as cited in US10792293B2, “Topical nanodrug formulation” (priority 2015, dated 2020).

SMILES: CC(=O)S[C@@H]1CC2=CC(=O)CC[C@]2(C)[C@H]2CC[C@@]3(C)[C@@H](CC[C@@]34CCC(=O)O4)[C@H]12 [Spironolactone, spironolactone]
- solubility in water: about 2.8 mg/100 ml
